Two molecules from ChEMBL document CHEMBL5257159, “Insights into targeting SARS-CoV-2: design, synthesis, in silico studies and antiviral evaluation of new dimethylxanthine derivatives” (RSC Med Chem, 2023) can be followed below.

For assay [1], the target named is T1, Replicase polyprotein 1ab (Severe acute respiratory syndrome coronavirus 2, UniProt P0DTD1). As to the kind of experiment: Inhibition of SARS-CoV-2 RdRP using ATP substrate preincubated with compound for 30 mins followed by substrate addition and measured after 30 mins by Alphascreen microplate reader analysis. In general terms: Alpha assays give light when donor and acceptor beads are brought close together.

The subject of another assay is PC-3. The experiment in a line: Cytotoxicity against human PC-3 cells assessed as inhibition of cell growth incubated for 48 hrs by SRB assay. The format is functional, cell-based. A general note: In SRB staining, fixed cells bind dye roughly in proportion to their protein.
The target of assay [2] is T1, Replicase polyprotein 1ab. The experiment in a line: Inhibition of MBP tagged recombinant SARS-CoV-2 main protease using DABCYL-KTSAVLeu(13C6,15N)-Q as substrate incubated for 2 to 3 hrs by mass spectrometric analysis.
The next assay deals with SK-MEL-2. As to the kind of experiment: Cytotoxicity against human SK-MEL-2 cells assessed as inhibition of cell growth incubated for 48 hrs by SRB assay. The assay is classed as functional, cell-based.
In a further assay the test system is MDA-MB-435. The experiment in a line: Cytotoxicity against human MDA-MB-435 cells assessed as inhibition of cell growth incubated for 48 hrs by SRB assay. The format is functional, cell-based.
Another assay has as its system 786-0. As to the kind of experiment: Cytotoxicity against human 786-0 cells assessed as inhibition of cell growth incubated for 48 hrs by SRB assay. The format is functional, cell-based.
For a further assay, the system named is SR. The experiment in a line: Cytotoxicity against human SR cells assessed as inhibition of cell growth incubated for 48 hrs by SRB assay. The assay is classed as functional, cell-based.
The next assay deals with SK-OV-3. The experiment in a line: Cytotoxicity against human SK-OV-3 cells assessed as inhibition of cell growth incubated for 48 hrs by SRB assay. The format is functional, cell-based.
The test system of assay [3] is HOP-62. The experiment in a line: Cytotoxicity against human HOP-62 cells assessed as inhibition of cell growth incubated for 48 hrs by SRB assay. The format is functional, cell-based.
A further assay deals with CAKI-1. The experiment in a line: Cytotoxicity against human CAKI-1 cells assessed as inhibition of cell growth incubated for 48 hrs by SRB assay. The assay is classed as functional, cell-based.
Another assay relates to NCI-H322M. As to the kind of experiment: Cytotoxicity against human NCI-H322M cells assessed as inhibition of cell growth incubated for 48 hrs by SRB assay. The assay is classed as functional, cell-based.
A further assay deals with SARS-CoV-2. As to the kind of experiment: Antiviral activity against SARS-CoV-2 NRC-03-nhCoV infected in african green monkey Vero E6 cells assessed as inhibition of virus-induced cytopathic effect measured after 72 hrs by crystal violet staining based assay. The format is functional, organism-based. The conditions noted are these: Severe acute respiratory syndrome coronavirus 2, NRC-03-nhCoV, Vero C1008, 72 h. On the technique in general: Protection from cytopathic effect is a common read-out in antiviral testing.

Another assay deals with Hs578Bst. The experiment in a line: Cytotoxicity against human Hs578Bst cells assessed as inhibition of cell growth incubated for 48 hrs by SRB assay. The assay is classed as functional, cell-based.
The test system of assay [4] is UO-31. As to the kind of experiment: Growth inhibition of human UO-31 cells incubated for 48 hrs by SRB assay relative to control. The format is functional.
For a further assay, the system named is SN12C. The experiment in a line: Cytotoxicity against human SN12C cells assessed as inhibition of cell growth incubated for 48 hrs by SRB assay. The format is functional, cell-based.
In the next assay the test system is RPMI-8226. The experiment in a line: Cytotoxicity against human […] cells assessed as inhibition of cell growth incubated for 48 hrs by SRB assay. The assay is classed as functional, cell-based.
In assay [5] the test system is UO-31. As to the kind of experiment: Cytotoxicity against human UO-31 cells assessed as inhibition of cell growth incubated for 48 hrs by SRB assay. The format is functional, cell-based.
Assay [6] has as its system HOP-62. The experiment in a line: Growth inhibition of human HOP-62 cells incubated for 48 hrs by SRB assay relative to control. The format is functional.

The source made the active and inactive calls. No cut-off for these calls is given here.

Broadly, the IC50 is the concentration at which inhibition is half-maximal. For the molecule `Cn1cnc2c1c(=O)n(CC(=O)Nc1ccc(S(=O)(=O)Nc3ncccn3)cc1)c(=O)n2C`, the concentration for half-maximal inhibition (IC50) worked out at 3.22 µM in [1], 8.06 µM in assay [2] and 8.86 µM with SARS-CoV-2. Also, the result in the assay with PC-3, in the assay on SK-MEL-2, in the assay with MDA-MB-435, in the assay with 786-0, in the assay on SR and with SK-OV-3 was inactive. For the same molecule, the result with HOP-62 [3], in the assay with CAKI-1, in the assay on NCI-H322M, in the assay on Hs578Bst, in the assay with SN12C and in the assay with RPMI-8226 was inactive. Also, in the assay with UO-31 [4], the “growth inhibition (GI)” value was found to be 17.55%.

Consider `Cn1c(=O)c2c(ncn2CCC(=O)Nc2ccc(S(=O)(=O)Nc3ncccn3)cc2)n(C)c1=O`, for which the outcome with PC-3, with UO-31 [5], with SK-MEL-2, in the assay on MDA-MB-435, in the assay on 786-0 and in the assay on SR was inactive. In addition, the outcome in the assay on SK-OV-3, in the assay on CAKI-1, in the assay with NCI-H322M, in the assay on Hs578Bst, with SN12C and with RPMI-8226 was inactive. Further, the “growth inhibition (GI)” value with HOP-62 [6] is given as 16.12%. For the same molecule, the concentration for half-maximal inhibition (IC50) with SARS-CoV-2 was 38.4 µM.
